Values belong to the molecule of their own block, whether it stands above or below them.
What was measured:
[1] = target: T1, norepinephrine transporter (NET) (Homo sapiens, UniProt P23975); experiment: competition with ^3H-NE for uptake by SK-N-SH cells; format: cell-based; settings: for inhibition of the uptake/internalization of ^3H-NE (competition with ^3H-NE): 1 hour, tested up to 100 μM; for substrate of NET compared with MIBG: competition with ^3H-NE
T1 construct: human neuroblastoma cells SK-N-SH, which are known to express the transporter NET in large quantity; host or cells: SK-N-SH human neuroblastoma cells
T1 sequence (P23975 whole entry): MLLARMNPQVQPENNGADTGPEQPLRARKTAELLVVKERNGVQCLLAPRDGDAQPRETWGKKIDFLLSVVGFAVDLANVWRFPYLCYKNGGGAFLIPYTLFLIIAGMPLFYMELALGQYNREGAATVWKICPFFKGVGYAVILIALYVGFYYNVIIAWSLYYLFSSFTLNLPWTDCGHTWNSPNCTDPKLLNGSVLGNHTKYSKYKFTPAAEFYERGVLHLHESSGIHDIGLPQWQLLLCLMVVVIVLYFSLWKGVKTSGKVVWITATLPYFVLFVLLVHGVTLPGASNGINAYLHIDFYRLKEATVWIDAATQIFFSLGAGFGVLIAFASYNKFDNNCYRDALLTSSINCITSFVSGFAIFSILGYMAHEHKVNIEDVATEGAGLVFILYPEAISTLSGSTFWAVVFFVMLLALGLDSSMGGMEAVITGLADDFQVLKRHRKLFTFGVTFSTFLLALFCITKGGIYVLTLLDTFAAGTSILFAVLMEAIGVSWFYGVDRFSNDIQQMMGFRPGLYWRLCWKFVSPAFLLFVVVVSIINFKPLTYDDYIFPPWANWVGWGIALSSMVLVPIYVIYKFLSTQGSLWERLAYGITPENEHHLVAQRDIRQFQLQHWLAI
Source text: The ability of the ^89Y-DOTA-BG chelate (1a, MC4324) (non-radioactive analogue of the compound of Formula II, 1 or MC4324) to act as substrate of NET has been evaluated in competition experiments with the tritiated endogenous substrate ^3H-NE for the uptake by the human neuroblastoma cells SK-N-SH, which are known to express the transporter NET in large quantity. […] This provides the ability to prepare radio-marked versions of the chelate of Formula II (or MC4324) with an even low specific activity, because the absence of competition for NET between the chelate (MC4324) and the free binder 9 (MC4325) doesn't compromise the bonding ability to NET of the chelate (compound of Formula II, MC4324) also in the presence of an excess of free binder 9 (MC4325).
FIG. 3 depicts the competition of the ^89Y-DOTA-BG chelate (1a, MC4324) (non-radioactive analogue of the compound of Formula II, 1 or MC4324) and of free binder 9 (MC4325) with ^3H-NE (50 nM, 1 hour incubation, T=37° C.) for the uptake by the SK-N-SH cells. ^1H-NE a 20 μM and MIBG @ 2 μM have been used as positive controls.
^3H-NE has been purchased from Perkin Elmer. To measure the initial cell uptake speeds of ^3H-NE, the cells have been grown for 16 hours in the presence of serum only, then incubated with binder medium (EMEM containing 0.2% BSA and 20 mM Hepes, pH 7.5) for 10 minutes by heating in a water bath at 37° C. The bond has been initiated by adding 0.5 ml per well of 50 nM ^3H-NE to the binder medium for […], the plates have then been placed on ice and washed three times with frozen PBS. Thus, the cell monolayers have been dried and lysed with […]. The cpm (“counts” per minute) have been determined separately in the different wells in triple for each time. By cpm is meant “counts” or “hits” per minute, i.e. the nuclear disintegrations that occur in one minute. These disintegrations come from inside the cells after these have been, following the order below: 1) incubated with ^3H-NE, 2) washed with PBS to eliminate ^3H-NE remained outside the cells, 3) lysed for better detecting the radioactivity due to the internalized ^3H-NE only.
The background bond has been determined in parallel in a fourth well containing a 400 times molar excess of non-marked ^1H-NE (“cold”). For the competition study, the cells have been plated as above, and thus incubated for 1 hour with 50 nM ^3H-NE in binder medium in the absence and presence of the ^89Y-DOTA-BG chelate (compound of Formula II, 1a or MC4324) (non-radioactive analogue of the compound of Formula II, 1 or MC4324) and free binder 9 (MC4325) at different concentrations. The radioactivity has been determined separately in the wells in triple for each concentration value. The uptake of ^3H-NE has been expressed as total radioactivity percentage normalized for mg of protein.
The ability of the “cold” chelates of Formula III (10a′, MC4801) and IV (10b′, MC4803) to act as substrates of NET has been evaluated in competition experiments with the tritiated endogenous substrate ^3H-NE for the uptake by the human neuroblastoma cells SK-N-SH, which are known to express the transporter NET in large quantity. […] Therefore also in this case it is possible to prepare radio-marked versions of the chelates of Formula III (10a, MC4801) and IV (10b, MC4803) with low specific activity, as the absence of competition for NET between the chelates 10a,b (MC4801 and MC4803) and the respective free binders 13a,b (MC4802 and MC4804) doesn't compromise the bonding ability to NET of the chelates [compounds of Formula III (10a, MC4801) and IV (10b, MC4803)] also in the presence of an excess of free binders 13a,b (MC4802 and MC4804). […]

[2] = tested on: human neuroblastoma line SK-N-SH; experiment: cytotoxic effects in SK-N-SH cells; format: cell-based; settings: up to the maximum concentration tested (100 μM)
[3] = chemical stability in physiological conditions (PBS buffer, 37° C., analytical HPLC); format: physicochemical; settings: for Area 1 (chromatographic peak of compound 1a) / Area (1 + 2) (peaks of compound 1a and impurity 2): PBS, 37° C.
Procedure: The stability of the chelate ^89Y-DOTA-BG (1a, MC4324) (non-radioactive analogue of the compound of Formula II, 1 or MC4324) in physiological conditions has been evaluated by analysis with analytical HPLC (Shimadzu Nexera chromatograph equipped with a SPD-M20A PDA detector; Hypersil ODS GOLD 250×4.6 mm column; eluent: MeOH/H2O 5:95 v/v+0.02% TFA, flow: 1.0 ml/min; UV detection 214 nm) repeated at regular time intervals after having solubilized it in PBS buffer (c=0.9 mg/ml) and kept at T=37° C.
FIG. 2 depicts the HPLC plot relative to the compound ^89Y-DOTA-BG (1a) solubilized in PBS buffer (c=0.9 mg/ml) and at T=37° C. time t=0 min (A), t=21 hours (B) and t=5 days (C). […]

[4] = stability in human serum (release of ^90Y^3+ to serum proteins); format: in vitro ADME; settings: 32 MBq per 16 ml, T=37° C., 14 days
Procedure: The stability in serum of the […] chelate of Formula II (1 or MC4324) has been evaluated by measuring the release of the metal cation ^90Y^3+ from the chelate to the serum proteins during 14 days in which it has been kept in physiological conditions. Briefly, the ^90Y-DOTA-BG chelate of Formula II (1 or MC4324) has been incubated with human serum (32 MBq for 16 ml of serum) at T=37° C. At regular time intervals serum aliquots have been collected and, by using centrifuge filter tubes (Amicon® Ultra-4 3K, Merck Millipore) and by centrifuging at 5500 g, the serum proteins have been separated from the non-protein fraction of serum and the radioactivity of both fractions has been measured with a liquid scintillation β counter (scintillation liquid used is Perkin Elmer ULTIMA GOLD).
The stability in serum of the chelates of Formula III (10a, MC4801) and IV (10b, MC4803) has been evaluated by measuring the release of the metal cation ^90Y^3+ from the chelates to the serum proteins during 14 days in which they have been kept in physiological conditions. Briefly, the chelates of Formula III (10a, MC4801) and IV (10b, MC4803) have been incubated with human serum (32 MBq per 16 ml of serum) at T=37° C. At regular time intervals serum aliquots have been collected and, by using centrifuge filter tubes (Amicon® Ultra-4 3K, Merck Millipore) and by centrifuging at 5500 g, the serum proteins have been separated from the non-protein fraction of serum and the radioactivity of both fractions has been measured with a liquid scintillation β counter (scintillation liquid used is Perkin Elmer ULTIMA GOLD).

IC50 ([1]; 50 nM ^3H-NE, 1 hour incubation, 37° C., read-out: inhibition of the ^3H-NE uptake IC50): ~10 µM | inhibition of the uptake/internalization of ^3H-NE (competition with ^3H-NE) ([1]; 50 nM ^3H-NE, 37° C.): dose-dependent inhibition | chemical purity after 5 days ([3]; PBS buffer c=0.9 mg/ml, T=37° C., HPLC UV 214 nm, 5 days): higher than 99.5% | Area 1 (chromatographic peak of compound 1a) ([3]; time 0 min): 34.78 | Area (1 + 2) (peaks of compound 1a and impurity 2) ([3]; time 0 min): 35.13 | Area 1 (chromatographic peak of compound 1a) ([3]; time 30 min): 35.09 | Area (1 + 2) (peaks of compound 1a and impurity 2) ([3]; time 30 min): 35.29 | Area 1 (chromatographic peak of compound 1a) ([3]; time 1 hour 30 min): 35.07 | Area (1 + 2) (peaks of compound 1a and impurity 2) ([3]; time 1 hour 30 min): 35.30 | Area 1 (chromatographic peak of compound 1a) ([3]; time 5 hours): 35.13 | Area (1 + 2) (peaks of compound 1a and impurity 2) ([3]; time 5 hours): 35.40 | Area 1 (chromatographic peak of compound 1a) ([3]; time 21 hours): 37.15 | Area (1 + 2) (peaks of compound 1a and impurity 2) ([3]; time 21 hours): 37.45 | Area 1 (chromatographic peak of compound 1a) ([3]; time 5 days): 38.34 | Area (1 + 2) (peaks of compound 1a and impurity 2) ([3]; time 5 days): 38.65
SMILES: N=C(N)NCc1cccc(C(=O)NCCNC(=O)CN2CCN(CC(=O)[O-])CCN(CC(=O)[O-])CCN(CC(=O)[O-])CC2)c1.[89Y+3] [1a]
substrate of NET compared with MIBG [1]: substrate of NET analogously to MIBG, even though with lower power | cytotoxic effects [2]: without dose-dependent cytotoxic effects

inhibition of the uptake/internalization of ^3H-NE (competition with ^3H-NE) ([1]; 50 nM ^3H-NE, 37° C.): completely unable to compete
SMILES: N=C(N)NCc1cccc(C(=O)NCCCNC(=O)CN2CCN(CC(=O)O)CCN(CC(=O)O)CCN(CC(=O)O)CC2)c1 [13a, 2,2′,2″-(10-(2-((3-(3-(guanidinomethyl)benzamido)propyl)amino)-2-oxoethyl)-1,4,7,10-tetraazacyclododecane-1,4,7-triyl) triacetic acid]

loss of radioactivity (^90Y^3+) in favor of the protein fraction of serum [4]: no measurable loss of radioactivity
SMILES: N=C(N)NCc1cccc(C(=O)NCCCCNC(=O)CN2CCN(CC(=O)[O-])CCN(CC(=O)[O-])CCN(CC(=O)[O-])CC2)c1.[90Y+3] [10b]

loss of radioactivity (^90Y^3+) in favor of the protein fraction of serum [4]: no measurable loss of radioactivity
SMILES: N=C(N)NCc1cccc(C(=O)NCCNC(=O)CN2CCN(CC(=O)[O-])CCN(CC(=O)[O-])CCN(CC(=O)[O-])CC2)c1.[90Y+3] [compound 1]

SMILES: NC[C@H](O)c1ccc(O)c(O)c1 [^1H-NE, reference compound]
competition of positive control with ^3H-NE for the internalization ([1]; non-marked ^1H-NE at 20 μM): compete with ^3H-NE for the internalization

inhibition of the uptake/internalization of ^3H-NE (competition with ^3H-NE) ([1]; 50 nM ^3H-NE, 37° C.): completely unable to compete
SMILES: CC(CCNC(=O)CN1CCN(CC(=O)O)CCN(CC(=O)O)CCN(CC(=O)O)CC1)NC(=O)c1cccc(CNC(=N)N)c1 (stereo not drawn) [13b, 2,2′,2″-(10-(2-((3-(3-(guanidinomethyl)benzamido)butyl)amino)-2-oxoethyl)-1,4,7,10-tetraazacyclododecane-1,4,7-triyl) Triacetic Acid]

inhibition of the uptake/internalization of ^3H-NE (competition with ^3H-NE) ([1]; 50 nM ^3H-NE, 37° C.): completely unable to compete
SMILES: N=C(N)NCc1cccc(C(=O)NCCNC(=O)CN2CCN(CC(=O)O)CCN(CC(=O)O)CCN(CC(=O)O)CC2)c1 [compound 9, 2,2′,2″-(10-(2-((2-(3-(guanidinomethyl)benzamido)ethyl)amino)-2-oxoethyl)-1,4,7,10-tetraazacyclododecane-1,4,7-triyl) triacetic acid]

inhibition of the uptake/internalization of ^3H-NE (competition with ^3H-NE) ([1]; 50 nM ^3H-NE, 37° C.): dose-dependent inhibition | substrate of NET compared with MIBG ([1]; listed as Formula III): substrates of NET analogously to MIBG
SMILES: N=C(N)NCc1cccc(C(=O)NCCCNC(=O)CN2CCN(CC(=O)[O-])CCN(CC(=O)[O-])CCN(CC(=O)[O-])CC2)c1.[89Y+3] [10a′]
substrate of NET compared with MIBG [1]: substrate of NET analogously to MIBG, even though with lower power | cytotoxic effects [2]: without dose-dependent cytotoxic effects | cytotoxic effects ([2]; listed as Formula III): without cytotoxic effects

loss of radioactivity (^90Y^3+) in favor of the protein fraction of serum [4]: no measurable loss of radioactivity
SMILES: N=C(N)NCc1cccc(C(=O)NCCCNC(=O)CN2CCN(CC(=O)[O-])CCN(CC(=O)[O-])CCN(CC(=O)[O-])CC2)c1.[90Y+3] [10a]

SMILES: N=C(N)NCc1cccc(I)c1 [MIBG, reference compound]
competition of positive control with ^3H-NE for the internalization ([1]; non-marked MIBG at 2 μM): compete with ^3H-NE for the internalization

Reference: patent US20220072165A1, “RADIODRUG FOR DIAGNOSTIC/THERAPEUTIC USE IN NUCLEAR MEDICINE AND RADIO-GUIDED MEDICINE” (UNIVERSITÀ DEGLI STUDI DI ROMA "LA SAPIENZA", priority 2019, published 2022)
